Measured values: article PMC5754413, “Mass balance, metabolic disposition, and pharmacokinetics of a single oral dose of regorafenib in healthy human subjects” (Cancer Chemotherapy and Pharmacology, 2017)
Where two headings read alike, the source gives them in different places.

Tests used:
[1] = parameters: method as in PMID 22421192, PMID 22568966; conditions: steady state; cited from earlier work
CYP3A4 = tested on: CYP3A4; parameters: method as in PMID 24896071, PMID 27734608; conditions: in vitro data; cited from earlier work
[2] = parameters: method as in PMID 24896071; conditions: co-administration of ketoconazole with a single 160 mg dose of regorafenib; cited from earlier work
[3] = Metabolite profiling in plasma by HPLC–LSC; assay type: in vivo, human
Description: (§1) Blood and plasma: Blood samples (18.7 mL per each time point) were collected into nonbeaded lithium-heparinized tubes immediately pre-dose and at the following post-dose times: 0.5, 1, 1.5, 2, 2.5, 3, 4, 6, 9, 12, 16, 20, 24, 36, 48, 72, 96, 120, 144, 192, 240, and 288 h. For each sample, 1 mL of whole blood was stored at 4 °C for subsequent LSC and the remainder was processed for plasma. Individual 150 μL plasma samples for each time point were treated with formic acid (20 μL) and acetonitrile (450 μL). The samples were homogenized using a MS2 Minishaker® (IKA® Labortechnik, Staufen im Breisgau, Germany). The precipitated proteins were removed by centrifugation (5 min, 13,000 rpm, Biofuge). After concentrating the supernatant to about 80 μL, methanol (15 μL) was added. The individual samples were analyzed by HPLC with off-line radioactivity detection for metabolite profiling.
(§2) Pharmacokinetic outcome measures were generated by non-compartmental analysis of plasma concentration–time data using WinNonlin v4.1 (Pharsight Corporation) in conjunction with Kincalc v2.50 (Bayer AG). For individual subjects, primary outcome measures were maximum observed concentration (C max) and area under the concentration–time curve from time zero to infinity (AUC). […] The metabolite or regorafenib percentages were calculated by AUC(0–144)metabolite or regorafenib divided by AUC(0–144)radioactivity calculated from data obtained by HPLC–LSC analysis. Secondary outcomes were: time to C max (t max); apparent terminal elimination half-life (t ½); apparent volume of distribution during the terminal phase after extravascular administration (Vz/F); and total body clearance of drug calculated after extravascular administration (e.g., apparent oral clearance) (CL/F). AUC was estimated by the sum of partial areas: partial areas were calculated using the linear (if C i ≤ C i+1) or the logarithmic (if C i > C i+1) trapezoidal rules. The quality of the half-life calculation was assessed based on graphs showing the concentration–time profile. For reliable calculation of the half-life, at least three data points (concentration/time values) were used. The extrapolated portion of the AUC from the last measured data point C(t n) to infinity was calculated using the concentration C last,calc, which was calculated from the log-linear regression line used for half-life calculation rather than C(t n). In addition, appropriate pharmacokinetic parameters were derived from the total radioactivity-versus-time data in blood and plasma.
Due to the limited amount of radiocarbon associated with many of the samples, analyses were conducted using HPLC with fraction collection followed by off-line LSC. Samples were analyzed on a 150 × 3 mm Prodigy® ODS-3 100A, 3 µm column (Phenomenex, Aschaffenburg, Germany) protected by 8 × 3 mm Nucleosil® 100-3 C18 HD guard columns (Macherey–Nagel, Düren, Germany). Metabolites were separated with a gradient of aqueous potassium dihydrogen phosphate (1 g/L, pH 2.0, mobile phase A) versus acetonitrile (mobile phase B) at a flow rate of 0.5 mL/min (gradient: 0% B at 0 min, linear to 50% B at 10 min, linear to 60% B at 25 min, linear to 80% B at 26 min, plateau at 80% B to 30 min). The radiochemical profile of [^14C]regorafenib-derived radioactivity was determined for all urine samples, plasma extracts, and fecal homogenate extracts. Here, HPLC fractionation into 96-well plates was followed by off-line LSC (Wallac 1450 MicroBeta liquid scintillation analyzer) after adding 150 μL of scintillation cocktail to each well (Ultima-Flo™ AP, PerkinElmer; sampling rate: 10 s/well) using the Wallac 1450 Microbeta™ Plusliquid detector. Reconstructed radiochemical profiles were compiled from the resulting data.

[4] = Total radioactivity in plasma and whole blood (LSC) after a single oral dose of [14C]regorafenib; assay type: in vivo, human; conditions: for C max of total radioactivity: geometric mean (%CV), N = 4
Description: (§3) Subjects were screened within the 28 days before scheduled drug administration and entered the clinical unit 1 day before drug administration. After an overnight fasting, subjects received a single oral 120 mg dose of regorafenib, containing approximately 100 μCi (3.7 MBq) [^14C]regorafenib, as a 6 mL solution in an aqueous PEG-based vehicle (Diluent Sol 30 mL oral, Bayer HealthCare AG) followed by 240 mL water. The associated radiation exposure fell within International Commission on Radiological Protection Guidelines for Category IIa studies (0.1–1 mSv).
as §1
Liquid samples: Duplicate aliquots of liquid samples were diluted with 1 mL distilled water, if necessary, and mixed with 10 mL Aquasafe 500 Plus scintillation fluid. Levels of radioactivity were measured by LSC (PerkinElmer 2100) with automatic quench correction by an external standard channel ratio method at 13 °C using Ultima Gold™ as the liquid scintillation cocktail. Lower limits of detection (LLOD) were 30 μg-Eq/L for plasma (sample volume 0.5 mL), 50 μg-Eq/L for whole blood (sample volume 0.3 mL), and 0.016 μg-Eq/g for urine (sample weight 1 g).
as §2, with “AG).” for “AG). For individual subjects, primary outcome measures were maximum observed concentration (C max) and area under the concentration–time curve from time zero to infinity (AUC).”, “For reliable calculation of the half-life, at least three data points (concentration/time values) were used.” left out

[5] = Pharmacokinetics of regorafenib in plasma (HPLC–MS/MS) after a single oral 120 mg dose in healthy male subjects; assay type: in vivo, human; conditions: for half-life: plasma
Description: as §3, §1
Quantitative analysis of regorafenib in plasma was performed after protein precipitation using a fully validated HPLC–MS/MS assay. The analyses were performed in accordance with the 2001 FDA guidelines on bioanalytical validation. [^2H3,^15N]-regorafenib was used as internal standard (final concentration: 12.5 µg/L). The calibration range was from 2.00 µg/L to 2.00 mg/L. Quality control samples in the concentration range 5.00 µg/L to […] were determined with an accuracy of 98.1–103% and a precision of 1.55–10.0% (n = 6–8/concentration). All samples were stored at or below − 15 °C and analyzed within 14 days after sample receipt.
as §2

UGT1A9 = tested on: UGT1A9; parameters: method as in PMID 24896071, PMID 27734608; conditions: in vitro data; cited from earlier work
[6] = male, human, regorafenib in plasma, LC–MS/MS, single oral 120 mg solution, N = 4, geometric mean (%CV)

In the case of `CNC(=O)c1cc(Oc2ccc(NC(=O)Nc3ccc(Cl)c(C(F)(F)F)c3)c(F)c2)ccn1` [Regorafenib, 4-[4-({[4-chloro-3-(trifluoromethyl)phenyl]carbamoyl}amino)-3-fluorophenoxy]-N-methylpyridine-2-carboxamide], the “Secondary maximum of plasma concentration–time profile” value [1] is listed as 6 to 8 h, the “Tertiary maximum of plasma concentration–time profile” value [1] is listed as roughly 24 h and the “Enzyme catalyzing oxidative biotransformation” value (CYP3A4) is listed as “predominantly catalyzed by CYP3A4”. For the same molecule, the “Increase in mean AUC” value [2] was 30–40%, the “Increase in mean C max” value [2] was 30–40% and the “Percent of total AUC(0–144) of radioactivity in plasma” value ([3]; based on HPLC–LSC, mean) was 57.4%. For the same molecule, the “Mean total exposure, AUC(0–144 h)” value ([3]; plasma, HPLC–LSC) was 46.89 mg-Eq·h/L, the “Estimated half-lives of total radioactivity, range between subjects” value ([4]; in vivo) was 34 to 42 h and the “C max of total radioactivity” value ([4]; plasma) was 2.90 mg-Eq/L. The “% of AUC(144–inf), extrapolated portion” value ([4]; total radioactivity) was “% of AUC(144–inf): total (2.6%), extrapolated portion”, the “Binding of regorafenib-derived radioactivity to red blood cells” value ([4]; whole blood versus plasma radioactivity) was “does not bind substantially to red blood cells” and the “C max of total radioactivity” value ([4]; whole blood) was 1.95 mg-Eq/L. The half-life ([5]; human, oral, 120 mg, except for subject 003, read-out: Half-lives for regorafenib, range between subjects) was 39 to 48 h, the half-life ([5]; human, oral, 120 mg, subject 003, read-out: Calculated t 1/2 for regorafenib (converted)) was roughly 62 h and the Vd/F ([5]; male, human, oral, 120 mg, regorafenib in plasma, geometric mean (%CV), N = 4, read-out: Vz/F) was 216 L. For the same molecule, the Tmax ([5]; male, human, oral, 120 mg, regorafenib in plasma, median (range), N = 4) was 1.25 h, the half-life ([5]; male, human, oral, 120 mg, regorafenib in plasma, geometric mean (%CV), N = 4, read-out: t 1/2 (converted)) was 48.6 h and the AUC [5, 6] was 39000 ng·h/mL. For the same molecule, the Cmax [5, 6] was 1580 ng/mL, the CL/F ([5]; regorafenib in plasma, geometric mean (%CV), N = 4) was 3.08 (34.9) L/h and the “Enzyme catalyzing conjugation with glucuronic acid” value (UGT1A9) was “by UGT1A9”.
